Laboratory results published in US10124004B2, “Pyrido[3,4-d]pyrimidine derivative and pharmaceutically acceptable salt thereof” (Teijin Pharma Limited, priority 2015, dated 2018).

Legend:
CDK4/cyclin D3 = target: T1, CDK4/cyclin D3 (Homo sapiens, UniProt P11802); assay: Human CDK4/cyclin D3 inhibitory activity (QS S Assist CDK4/Cyclin D3_FP Kit, IMAP fluorescence polarization); format: biochemical; conditions: 50% inhibitory concentration against CDK4/cyclin D3, given as class symbol
T1 construct: purchased Carna Biosciences, Inc. QS S Assist CDK4/Cyclin D3_FP Kit
T1 sequence (P11802 whole entry): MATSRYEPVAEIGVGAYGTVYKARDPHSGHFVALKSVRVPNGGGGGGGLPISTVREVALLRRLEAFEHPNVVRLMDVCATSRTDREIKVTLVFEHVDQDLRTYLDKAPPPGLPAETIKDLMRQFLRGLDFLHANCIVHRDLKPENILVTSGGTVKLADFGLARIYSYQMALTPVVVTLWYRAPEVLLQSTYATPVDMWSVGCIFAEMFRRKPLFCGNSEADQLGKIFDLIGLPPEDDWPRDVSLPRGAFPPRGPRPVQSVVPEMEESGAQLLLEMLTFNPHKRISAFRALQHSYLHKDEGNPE
T1 sequence (P30281 whole entry partner): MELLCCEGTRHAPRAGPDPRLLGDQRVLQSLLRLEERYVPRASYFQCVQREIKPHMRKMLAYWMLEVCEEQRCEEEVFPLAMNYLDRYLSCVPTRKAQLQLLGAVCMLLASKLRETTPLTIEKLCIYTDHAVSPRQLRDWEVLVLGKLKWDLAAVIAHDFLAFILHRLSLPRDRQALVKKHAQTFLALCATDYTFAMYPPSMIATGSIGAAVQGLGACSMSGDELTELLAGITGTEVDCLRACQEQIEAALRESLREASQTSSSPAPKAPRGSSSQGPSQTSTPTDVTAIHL
Outline: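 IMAP fluorescence polarization kit: CDK4/cyclin D3 at 12.5-25 ng/well with kit ATP/substrate/metal mix in 20 mM HEPES pH 7.4, 0.01% Tween20, 2 mM DTT, 45 min at room temperature. FP read at 485/535 nm after 30 min binding; IC50 from dose-response fit of percent inhibition versus enzyme and no-enzyme controls.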

CDK2/cyclin A2 = target: T2, CDK2/cyclin A2 (Homo sapiens, UniProt P24941); assay: Human CDK2/cyclin A2 inhibitory activity (QS S Assist CDK2/Cyclin A2_FP Kit, IMAP fluorescence polarization); format: biochemical; conditions: 50% inhibitory concentration against CDK2/cyclin A2, given as class symbol
T2 construct: purchased Carna Biosciences, Inc. QS S Assist CDK2/Cyclin A2_FP Kit
Outline: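 Kinase activity read as fluorescence polarization (485/535 nm) after phosphorylated fluorescent substrate binds IMAP reagent (30 min, RT, dark). Enzyme (2.5 ng/well) reacted 60 min at RT with ATP/substrate/metal in HEPES pH 7.4 buffer with Tween 20 and DTT; no-enzyme wells define 0% activity; IC50 by curve fit.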

SMILES	IC50 (CDK4/cyclin D3) [nM]	IC50 (CDK2/cyclin A2) [nM]
Cc1nc(Nc2ncc3cc([C@@H](C)O)nc(NC4CCC4)c3n2)ccc1N1CCNCC1 [Compound 1094]	< 10	≥ 100
Cc1nc(Nc2ncc3cc([C@@H](C)O)nc(NCC4CC4)c3n2)ccc1N1CCNCC1 [Compound 1095]	< 10	≥ 100
CCNc1nc(C(F)F)cc2cnc(Nc3ccc(CN4CCC(C(=O)O)CC4)cn3)nc12 [Compound 1096]	10 to 100	≥ 100
CCCNc1nc(C(F)F)cc2cnc(Nc3ccc(CN4CCC(C(=O)O)CC4)cn3)nc12 [Compound 1097]	10 to 100	≥ 100
CC(C)CNc1nc(C(F)F)cc2cnc(Nc3ccc(CN4CCC(C(=O)O)CC4)cn3)nc12 [Compound 1098]	10 to 100	≥ 100
O=C(O)C1CCN(Cc2ccc(Nc3ncc4cc(C(F)F)nc(NC5CCC5)c4n3)nc2)CC1 [Compound 1099]	< 10	≥ 100
O=C(O)C1CCN(Cc2ccc(Nc3ncc4cc(C(F)F)nc(NCC5CC5)c4n3)nc2)CC1 [Compound 1100]	10 to 100	≥ 100
C[C@@H](O)c1cc2cnc(Nc3ccc(N4CCN(C)CC4)nn3)nc2c(NC(C)(C)CO)n1 [Compound 1101]	< 10	≥ 100
CCCNc1nc([C@@H](C)O)cc2cnc(Nc3ccc(N4CCN(C)CC4)nn3)nc12 [Compound 1102]	< 10	≥ 100
CCNc1nc([C@@H](C)O)cc2cnc(Nc3ccc(CN4CCN(C)CC4)cn3)nc12 [Compound 1103]	< 10	≥ 100
CCCNc1nc([C@@H](C)O)cc2cnc(Nc3ccc(CN4CCN(C)CC4)cn3)nc12 [Compound 1104]	< 10	≥ 100
COC[C@@H](C)Nc1nc([C@@H](C)O)cc2cnc(Nc3ccc(CN4CCN(C)CC4)cn3)nc12 [Compound 1105]	< 10	≥ 100
C[C@@H](O)c1cc2cnc(Nc3ccc(CN4CCN(C)CC4)cn3)nc2c(NC(C)(C)CO)n1 [Compound 1106]	< 10	≥ 100
CCNc1nc(C2(C)COC2)cc2cnc(Nc3ccc(CN4CCNCC4)cn3)nc12 [Compound 1107]	< 10	≥ 100
CC1(c2cc3cnc(Nc4ccc(CN5CCNCC5)cn4)nc3c(NC3CCC3)n2)COC1 [Compound 1108]	< 10	≥ 100
CC1(c2cc3cnc(Nc4ccc(CN5CCNCC5)cn4)nc3c(NCC3CC3)n2)COC1 [Compound 1109]	< 10	≥ 100
CC1(c2cc3cnc(Nc4ccc(CN5CCNCC5)cn4)nc3c(NCC3CC(F)(F)C3)n2)COC1 [Compound 1110]	< 10	≥ 100
CCCNc1nc([C@@H](C)OC)cc2cnc(Nc3ccc4c(n3)CCN(C(=O)CO)C4)nc12 [Compound 1111]	10 to 100	≥ 100
CCNc1nc([C@@H](C)OC)cc2cnc(Nc3ccc4c(n3)CCN(C(=O)CO)C4)nc12 [Compound 1112]	10 to 100	≥ 100
CO[C@H](C)c1cc2cnc(Nc3ccc4c(n3)CCN(C(=O)CO)C4)nc2c(N[C@H]2CCCOC2)n1 [Compound 1113]	10 to 100	≥ 100
O=C(CO)N1CCc2nc(Nc3ncc4cc(C5CCOC5)nc(N[C@H]5CCCOC5)c4n3)ccc2C1 (some centres unmarked) [Compound 1114]	< 10	≥ 100
CC1(c2cc3cnc(Nc4ccc5c(n4)CCN(C(=O)CO)C5)nc3c(N[C@H]3CCCOC3)n2)COC1 [Compound 1115]	< 10	≥ 100
CCCNc1nc([C@@H](C)O)cc2cnc(Nc3ccc4c(n3)CCN(C(=O)CO)C4)nc12 [Compound 1116]	< 10	≥ 100
CCNc1nc([C@@H](C)O)cc2cnc(Nc3ccc4c(n3)CCN(C(=O)CO)C4)nc12 [Compound 1117]	10 to 100	≥ 100
C[C@@H](O)c1cc2cnc(Nc3ccc4c(n3)CCN(C(=O)CO)C4)nc2c(N[C@H]2CCCOC2)n1 [Compound 1118]	< 10	≥ 100

Next, values leading:

IC50 (CDK4/cyclin D3) [nM]	IC50 (CDK2/cyclin A2) [nM]	SMILES
< 10	≥ 100	C[C@@H](O)c1cc2cnc(Nc3ccc(CN4CCN(CCO)CC4)cn3)nc2c(NC2CCCC2)n1 [Compound 1070]
< 10	≥ 100	C[C@@H](O)c1cc2cnc(Nc3ccc(CN4CCN(CCO)CC4)cn3)nc2c(NC(C)(C)C)n1 [Compound 1071]
< 10	≥ 100	CCNc1nc([C@@H](C)O)cc2cnc(Nc3ccc(CN4CCN(CCCO)CC4)cn3)nc12 [Compound 1072]
< 10	≥ 100	CCNc1nc([C@@H](C)O)cc2cnc(Nc3ccc(CN4CCN(CC(C)(C)O)CC4)cn3)nc12 [Compound 1073]
< 10	≥ 100	C[C@@H](O)c1cc2cnc(Nc3ccc(CN4CCN(CCO)CC4)cn3)nc2c(NCCCF)n1 [Compound 1074]
< 10	≥ 100	CCCNc1nc([C@@H](C)O)cc2cnc(Nc3ccc(CN4CCN(C[C@H](C)O)CC4)cn3)nc12 [Compound 1075]
< 10	≥ 100	CCCNc1nc([C@@H](C)O)cc2cnc(Nc3ccc(CN4CCN(CCO)C[C@H]4C)cn3)nc12 [Compound 1076]
< 10	≥ 100	CCCNc1nc([C@@H](C)O)cc2cnc(Nc3ccc(CN4CCN(CCO)C[C@@H]4C)cn3)nc12 [Compound 1077]
< 10	≥ 100	C[C@@H](O)c1cc2cnc(Nc3ccc(N4CCNCC4=O)cn3)nc2c(NC2CCCC2)n1 [Compound 1078]
< 10	≥ 100	C[C@@H](O)c1cc2cnc(Nc3ccc(N4CCNCC4=O)cn3)nc2c(NCCCF)n1 [Compound 1079]
< 10	≥ 100	CCNc1nc([C@@H](C)O)cc2cnc(Nc3ccc(CN4CCCC(O)C4)cn3)nc12 (some centres unmarked) [Compound 1080]
< 10	≥ 100	CCCNc1nc([C@@H](C)O)cc2cnc(Nc3ccc(CN4CCCC(O)C4)cn3)nc12 (some centres unmarked) [Compound 1081]
< 10	≥ 100	C[C@@H](O)c1cc2cnc(Nc3ccc(CN4CCCC(O)C4)cn3)nc2c(NCC2CC2)n1 (some centres unmarked) [Compound 1083]
< 10	≥ 100	C[C@@H](O)c1cc2cnc(Nc3ccc(CN4CCCC(O)C4)cn3)nc2c(NC2CCC2)n1 (some centres unmarked) [Compound 1084]
< 10	≥ 100	CC(C)CNc1nc([C@@H](C)O)cc2cnc(Nc3ccc(CN4CCCC(O)C4)cn3)nc12 (some centres unmarked) [Compound 1085]
< 10	≥ 100	C[C@@H](O)c1cc2cnc(Nc3ccc(CN4CCCC(O)C4)cn3)nc2c(N[C@H]2CC[C@H](O)CC2)n1 (some centres unmarked) [Compound 1086]
< 10	≥ 100	C[C@@H](O)c1cc2cnc(Nc3ccc(CN4CCCC(O)C4)cn3)nc2c(NCC2CCOCC2)n1 (some centres unmarked) [Compound 1087]
< 10	≥ 100	CC(C)Nc1nc([C@@H](C)O)cc2cnc(Nc3ccc(N4CCN(C(=O)CO)CC4)cn3)nc12 [Compound 1090]
< 10	≥ 100	CCNc1nc([C@@H](C)O)cc2cnc(Nc3ccc(N4CCNCC4)c(C)n3)nc12 [Compound 1091]
< 10	≥ 100	CCCNc1nc([C@@H](C)O)cc2cnc(Nc3ccc(N4CCNCC4)c(C)n3)nc12 [Compound 1092]
< 10	≥ 100	Cc1nc(Nc2ncc3cc([C@@H](C)O)nc(NCC(C)C)c3n2)ccc1N1CCNCC1 [Compound 1093]
